# Assay results from patent US10849901B2, “Arf6 inhibitors and methods of synthesis and use thereof” (Navigen, Inc., priority 2014, dated 2020).
# Target: Arf6 (Homo sapiens (Human), UniProt P62330)
# Experiment: Fluorometric assay for Arf6 nucleotide exchange catalyzed by ARNO Sec7 domain (GTP-BODIPY FL)
# Type: biochemical
# Conditions: 20 nM Arf6 assay; read-out: IC50 (μM) 20 nM Arf6
# Protocol: FIGS. 1A-1D: Fluorometric high throughput assay for Arf6 nucleotide exchange catalyzed by ARNO Sec7 domain. FIG. 1A: Principle of the assay. FIG. 1B: SDS-PAGE analysis of N-terminally His-tagged Arf6(14-175) and ARNO(50-255) purified from the E. coli cultures by immobilized metal affinity chromatography. FIG. 1C: Correlation between signal intensity and ARNO concentration. The assay was performed using 50 mM Tris-HCl, pH 7.5, 1 mM MgCl2, 0.01% TX-100, 1% DMSO, 50 nM GTP-BODIPY FL, supplemented with ARNO-Sec7 at indicated concentrations in the absence or in the presence of 0.2 μM Arf6-GDP. Fluorescence intensities were monitored using a Synergy 4 plate reader (BioTek) at the excitation and emission wavelengths of 490 nm and 520 nm, respectively. FIG. 1D: Time course of apparent inhibitory potency of GDP. The assay was performed in automated mode using a Matrix PlateMate liquid handler.
# The primary biochemical assay uses a fluorometric assay for monitoring the replacement of bound nucleotide with a fluorogenic GTP derivative bearing a BODIPY FL moiety, allowing for the identification of compounds that can inhibit this exchange (see FIG. 1A). In certain embodiments, the methods disclosed herein may exploit the reduction of intramolecular fluorescence quenching of the modified nucleotide upon its binding to the target protein (see, e.g., McEwen D P, Gee K R, Kang H C, Neubig R R. Fluorescent BODIPY-GTP analogs: real-time measurement of nucleotide binding to G proteins. Anal Biochem. 2001 Apr. 1; 291(1): 109-17).
# The fluorometric assay formatted for 96-well microtiter plates has passed quality control based on the following criteria: i) S/B ratio of 4-fold and Z′-factor of 0.61; ii) linear correlation between signal intensity and ARNO concentration (see FIG. 1C); iii) sufficiently reproducible inhibitory effects of the reference inhibitor GDP for assay durations up to at least 1 hour (see FIG. 1D); and iv) lack of apparent fluorescence quenchers among 400 randomly selected compounds. The assay is amenable to automation with a throughput of approximately 5,000 data points per 8 hours.
# Arf6, sequence (P62330 14-175): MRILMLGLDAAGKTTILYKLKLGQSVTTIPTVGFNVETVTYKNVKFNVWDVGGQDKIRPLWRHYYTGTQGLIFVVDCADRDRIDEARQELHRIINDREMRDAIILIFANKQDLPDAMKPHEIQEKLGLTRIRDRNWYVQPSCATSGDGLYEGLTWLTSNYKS
row,Compound,IC50
1,O=c1cc(-c2cccc(Oc3ccccc3)c2)[nH]c2c(-c3ccc(Cl)c(Cl)c3)c(C3CC3)nn12 [Compound 14],1 µM
2,O=c1cc(-c2ccc(Br)cc2)[nH]c2c(-c3ccc(Cl)cc3)c(C(F)(F)F)nn12 [Compound 15],1.1 µM
3,CCC(=O)Nc1ccc(-c2cc(=O)n3nc(C(F)(F)F)c(-c4ccc(Cl)cc4)c3[nH]2)cc1 [Compound 16],1 µM
4,O=c1cc(-c2ccc(-c3cccnc3)cc2)[nH]c2c(-c3ccc(Cl)cc3)c(C(F)(F)F)nn12 [Compound 17],1.1 µM
5,Cc1nn2c(=O)cc(-c3ccc([N+](=O)[O-])cc3)[nH]c2c1-c1ccc(-c2ccccc2)cc1 [Compound 18],1.1 µM
6,CN(C)c1ccc(-c2cccc(-c3cc(=O)n4nc(C(F)(F)F)c(-c5ccc(Cl)cc5)c4[nH]3)c2)cn1 [Compound 19],1.1 µM
7,O=c1cc(-c2ccc([N+](=O)[O-])cc2)[nH]c2c(-c3cccc4ccccc34)c(Cc3ccccc3)nn12 [Compound 20],1.1 µM
8,O=c1cc(-c2cccc([N+](=O)[O-])c2)[nH]c2c(-c3ccc(Cl)cc3)c(C(F)(F)F)nn12 [Compound 21],1.2 µM
9,O=c1cc(-c2ccc([N+](=O)[O-])cc2)[nH]c2c(-c3ccc(Cl)c(Cl)c3)c(C3CC3)nn12 [Compound 22],1.2 µM
10,O=c1cc(-c2ccc([N+](=O)[O-])cc2)[nH]c2c(-c3ccc(Cl)c(Cl)c3)c(Cc3ccccc3)nn12 [Compound 23],1.2 µM
11,"O=c1c(Cl)c(-c2ccc([N+](=O)[O-])cc2)[nH]c2c(-c3ccc(Cl)cc3)c(Cc3ccccc3)nn12 [Compound 24, 2-benzyl-6-chloro-3-(4-chlorophenyl)-5-(4-nitrophenyl)-4H-pyrazolo[1,5-a]pyrimidin-7-one]",1.3 µM
12,O=c1cc(-c2ccc(Cl)cc2)[nH]c2c(-c3ccc(Cl)cc3)c(C(F)(F)F)nn12 [Compound 25],1.4 µM
13,COc1cc(-c2c(C)nn3c(=O)cc(-c4ccc([N+](=O)[O-])cc4)[nH]c23)ccc1Cl [Compound 26],1.4 µM
14,O=c1cc(-c2ccc([N+](=O)[O-])cc2)[nH]c2c(-c3ccc(Cl)c(Cl)c3)c(C3CC3)nn12 [Compound 27],1.4 µM

# More lines, in order of falling IC50, values ahead:
row,IC50,Compound
1,0.98 µM,O=c1c(Cl)c(-c2ccccc2)[nH]c2c(-c3ccc(Cl)cc3)c(C(F)(F)F)nn12 [Compound 13]
2,0.96 µM,O=c1cc(-c2ccc([N+](=O)[O-])cc2)[nH]c2c(-c3ccc(Cl)cc3)c(-c3ccccc3)nn12 [Compound 11]
3,0.96 µM,Cc1ccc(-c2cccc(-c3cc(=O)n4nc(C(F)(F)F)c(-c5ccc(Cl)cc5)c4[nH]3)c2)cn1 [Compound 12]
4,0.88 µM,O=c1c(Cl)c(-c2ccc([N+](=O)[O-])cc2)[nH]c2c(-c3ccc(Cl)cc3)c(C(F)(F)F)nn12 [Compound 10]
5,0.84 µM,O=c1cc(Cc2ccccc2)[nH]c2c(-c3ccc(Cl)c(Cl)c3)c(C(F)(F)F)nn12 [Compound 9]
6,0.67 µM,O=c1cc(-c2ccc([N+](=O)[O-])cc2)[nH]c2c(-c3ccc(Cl)c(C(F)(F)F)c3)c(C(F)(F)F)nn12 [Compound 8]
7,0.66 µM,O=c1cc(-c2ccc(Oc3ccccc3)cc2)[nH]c2c(-c3ccc(Cl)c(Cl)c3)c(C(F)(F)F)nn12 [Compound 6]
8,0.66 µM,O=c1cc(-c2ccc([N+](=O)[O-])cc2)[nH]c2c(-c3ccc(Cl)c(Cl)c3)c(C(F)(F)F)nn12 [Compound 7]
9,0.58 µM,O=c1cc(-c2ccc([N+](=O)[O-])cc2)[nH]c2c(-c3ccc(Cl)c(Cl)c3)c(-c3ccccc3)nn12 [Compound 5]
10,0.5 µM,O=C(Nc1ccc(C2=Nc3c(-c4ccc(Cl)cc4)c(C(F)(F)F)nn3C(=O)C2)cc1)c1ccccc1 [Compound 3]
11,0.33 µM,O=c1cc(-c2cccc(Oc3cc(F)cc(F)c3)c2)[nH]c2c(-c3ccc(Cl)c(Cl)c3)c(C(F)(F)F)nn12 [Compound 2]
12,0.25 µM,O=c1cc(-c2cccc(-c3cccnc3)c2)[nH]c2c(-c3ccc(Cl)c(Cl)c3)c(C(F)(F)F)nn12 [Compound 1]

# Same assay, conditions: 200 nM Arf6 assay; read-out: IC50 (μM) 200 nM Arf6
row,Compound,IC50
1,O=c1cc(-c2ccc(Oc3ccccc3)cc2)[nH]c2c(-c3ccc(Cl)c(Cl)c3)c(C(F)(F)F)nn12 [Compound 6],1.1 µM
2,O=c1cc(Cc2ccccc2)[nH]c2c(-c3ccc(Cl)c(Cl)c3)c(C(F)(F)F)nn12 [Compound 9],1.6 µM
3,"O=c1c(Cl)c(-c2ccc([N+](=O)[O-])cc2)[nH]c2c(-c3ccc(Cl)cc3)c(Cc3ccccc3)nn12 [Compound 24, 2-benzyl-6-chloro-3-(4-chlorophenyl)-5-(4-nitrophenyl)-4H-pyrazolo[1,5-a]pyrimidin-7-one]",1.4 µM
